# Data: US20120165306A1, “PYRAZINYLPYRIDINES USEFUL FOR THE TREATMENT OF PROLIFERATIVE DISEASES” (priority 2009, published 2012)
# Molecular target: Cdk9/cyclinT1 (Homo sapiens, UniProt P50750)
# Assay: Cdk9/cyclinT1 kinase assay (IMAP or Alpha Screen protocol)
# Source text: Cdk9/cyclinT1 IMAP Protocol
# Fluorescence polarization (FP) is used for detection.
# Cdk9/cyclinT1 Alpha Screen Protocol
# Chain of Cdk9/cyclinT1 (P50750 whole entry): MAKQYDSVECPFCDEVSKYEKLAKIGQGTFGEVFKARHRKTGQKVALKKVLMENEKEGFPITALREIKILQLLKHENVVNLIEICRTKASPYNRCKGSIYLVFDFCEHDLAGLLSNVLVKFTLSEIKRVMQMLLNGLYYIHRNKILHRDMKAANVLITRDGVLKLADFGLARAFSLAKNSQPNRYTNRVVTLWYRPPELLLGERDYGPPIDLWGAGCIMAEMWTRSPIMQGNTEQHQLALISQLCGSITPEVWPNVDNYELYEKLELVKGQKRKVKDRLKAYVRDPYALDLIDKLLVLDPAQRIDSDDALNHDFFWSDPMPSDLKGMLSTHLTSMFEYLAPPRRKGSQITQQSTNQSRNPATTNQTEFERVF
# Chain of Cdk9/cyclinT1 (O60563 whole entry partner): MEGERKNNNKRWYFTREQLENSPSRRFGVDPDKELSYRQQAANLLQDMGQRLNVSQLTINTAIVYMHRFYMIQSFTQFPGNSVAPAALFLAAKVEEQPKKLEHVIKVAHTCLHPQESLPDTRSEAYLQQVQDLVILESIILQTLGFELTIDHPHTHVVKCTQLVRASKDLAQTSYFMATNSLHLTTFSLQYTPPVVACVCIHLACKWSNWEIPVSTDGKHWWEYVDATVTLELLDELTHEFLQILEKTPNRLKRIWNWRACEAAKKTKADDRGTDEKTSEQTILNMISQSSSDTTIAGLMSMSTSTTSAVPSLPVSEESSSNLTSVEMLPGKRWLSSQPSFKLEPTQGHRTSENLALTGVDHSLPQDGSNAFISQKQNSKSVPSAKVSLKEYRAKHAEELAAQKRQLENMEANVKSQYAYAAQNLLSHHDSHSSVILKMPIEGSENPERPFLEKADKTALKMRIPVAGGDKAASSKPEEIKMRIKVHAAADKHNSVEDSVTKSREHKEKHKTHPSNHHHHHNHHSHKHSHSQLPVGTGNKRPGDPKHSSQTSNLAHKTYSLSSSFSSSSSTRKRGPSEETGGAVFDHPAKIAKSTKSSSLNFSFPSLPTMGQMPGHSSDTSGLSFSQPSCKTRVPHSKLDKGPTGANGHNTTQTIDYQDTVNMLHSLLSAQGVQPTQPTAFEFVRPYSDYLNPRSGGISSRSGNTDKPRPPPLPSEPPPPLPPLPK
row,Structure (SMILES),IC50
1,"O=C(Nc1cc(-c2cnccn2)c(Cl)cn1)[C@@H]1CCCNC1 [Example 1, (R)-Piperidine-3-carboxylic acid (5-chloro-4-pyrazin-2-yl-pyridin-2-yl)-amide]",2100 nM
2,"CC(C)(C)OC(=O)N1CCC[C@@H](C(=O)Nc2cc(-c3cncc(NCC4CCOCC4)n3)c(Cl)cn2)C1 [Example 2, (R)-3-(5-Chloro-4-{6-[(tetrahydro-pyran-4-ylmethyl)-amino]-pyrazin-2-yl}-pyridin-2-ylcarbamoyl)-piperidine-1-carboxylic acid tert-butyl ester]",16 nM
3,COCCN1CCC[C@@H](C(=O)Nc2cc(-c3cncc(NCC4CCOCC4)n3)c(Cl)cn2)C1 [Example 3],316 nM
4,"CS(=O)(=O)N1CCC[C@@H](C(=O)Nc2cc(-c3cncc(NCC4CCOCC4)n3)c(Cl)cn2)C1 [Example 4, (R)-1-Methanesulfonyl-piperidine-3-carboxylic acid (5-chloro-4-{6-[(tetrahydro-pyran-4-ylmethyl)-amino]-pyrazin-2-yl}-pyridin-2-yl)-amide]",179 nM
5,"CC(=O)N1CCC[C@@H](C(=O)Nc2cc(-c3cncc(NCC4CCOCC4)n3)c(Cl)cn2)C1 [Example 5, (R)-1-Acetyl-piperidine-3-carboxylic acid (5-chloro-4-{6-[(tetrahydro-pyran-4-ylmethyl)-amino]-pyrazin-2-yl}-pyridin-2-yl)-amide]",268 nM
6,CS(=O)(=O)N1CCC[C@H](C(=O)Nc2cc(-c3cncc(NCC4CCOCC4)n3)c(Cl)cn2)C1 [Example 6],< 8 nM
7,"CCN1CCC[C@@H](C(=O)Nc2cc(-c3cncc(NCC4CCOCC4)n3)c(Cl)cn2)C1 [Example 7, (R)-1-Ethyl-piperidine-3-carboxylic acid (5-chloro-4-{6-[(tetrahydro-pyran-4-ylmethyl)-amino]-pyrazin-2-yl}-pyridin-2-yl)-amide]",229 nM
8,"O=C(Nc1cc(-c2cncc(NCC3CCOCC3)n2)c(Cl)cn1)[C@H]1CCCNC1 [Example 8, (S)-Piperidine-3-carboxylic acid (5-chloro-4-{6-[(tetrahydro-pyran-4-ylmethyl)-amino]-pyrazin-2-yl}-pyridin-2-yl)-amide]",28 nM
9,"O=C(Nc1cc(-c2cncc(NCC3CCOCC3)n2)c(Cl)cn1)[C@@H]1CCCNC1 [Example 9, (R)-Piperidine-3-carboxylic acid (5-chloro-4-{6-[(tetrahydro-pyran-4-ylmethyl)-amino]-pyrazin-2-yl}-pyridin-2-yl)-amide]",< 8 nM
10,"COCC(=O)Nc1cc(-c2cncc(NCC3CCOCC3)n2)c(Cl)cn1 [Example 10, N-(5-Chloro-4-{6-[(tetrahydro-pyran-4-ylmethyl)-amino]-pyrazin-2-yl}-pyridin-2-yl)-2-methoxy-acetamide]",124 nM
11,"CC(=O)Nc1cc(-c2cncc(NCC3CCOCC3)n2)c(Cl)cn1 [Example 11, N-(5-Chloro-4-{6-[(tetrahydro-pyran-4-ylmethyl)-amino]-pyrazin-2-yl}-pyridin-2-yl)-acetamide]",29 nM
12,"CC(C)C(=O)Nc1cc(-c2cncc(NCC3CCOCC3)n2)c(Cl)cn1 [Example 12, N-(5-Chloro-4-{6-[(tetrahydro-pyran-4-ylmethyl)-amino]-pyrazin-2-yl}-pyridin-2-yl)-isobutyramide]",< 8 nM
13,"O=C(Nc1cc(-c2cncc(NCC3CCOCC3)n2)c(Cl)cn1)C1CCCC1 [Example 13, Cyclopentanecarboxylic acid (5-chloro-4-{6-[(tetrahydro-pyran-4-ylmethyl)-amino]-pyrazin-2-yl}-pyridin-2-yl)-amide]",15 nM
14,"O=C(Nc1cc(-c2cncc(NCc3ccccc3F)n2)c(Cl)cn1)[C@@H]1CCCNC1 [Example 14, (R)-Piperidine-3-carboxylic acid {5-chloro-4-[6-(2-fluoro-benzylamino)-pyrazin-2-yl]-pyridin-2-yl}-amide]",< 8 nM
15,"O=C(Nc1cc(-c2cncc(NCC3CCOCC3)n2)c(Cl)cn1)C1CCOCC1 [Example 15, Tetrahydro-pyran-4-carboxylic acid (5-chloro-4-{6-[(tetrahydro-pyran-4-ylmethyl)-amino]-pyrazin-2-yl}-pyridin-2-yl)-amide]",< 8 nM
16,"O=C(Nc1cc(-c2cncc(NCc3cncc(F)c3)n2)c(Cl)cn1)[C@@H]1CCCNC1 [Example 16, (R)-Piperidine-3-carboxylic acid (5-chloro-4-{6-[(5-fluoro-pyridin-3-ylmethyl)-amino]-pyrazin-2-yl}-pyridin-2-yl)-amide]",< 8 nM
17,"O=C(Nc1cc(-c2cncc(NCc3ccccn3)n2)c(Cl)cn1)[C@@H]1CCCNC1 [Example 17, (R)-Piperidine-3-carboxylic acid (5-chloro-4-{6-[(pyridin-2-ylmethyl)-amino]-pyrazin-2-yl}-pyridin-2-yl)-amide]",121 nM
18,"O=C(Nc1cc(-c2cncc(NCc3cccc(OC(F)F)c3)n2)c(Cl)cn1)[C@@H]1CCCNC1 [Example 18, (R)-Piperidine-3-carboxylic acid {5-chloro-4-[6-(3-difluoromethoxy-benzylamino)-pyrazin-2-yl]-pyridin-2-yl}-amide]",< 8 nM

row,Structure (SMILES),IC50
1,"CC(=O)NCCNc1cncc(-c2cc(NC(=O)[C@@H]3CCCNC3)ncc2Cl)n1 [Example 19, (R)-Piperidine-3-carboxylic acid {4-[6-(2-acetylamino-ethylamino)-pyrazin-2-yl]-5-chloro-pyridin-2-yl}-amide]",153 nM
2,"O=C(Nc1cc(-c2cncc(NCc3ccc(F)cc3)n2)c(Cl)cn1)[C@@H]1CCCNC1 [Example 20, (R)-Piperidine-3-carboxylic acid {5-chloro-4-[6-(4-fluoro-benzylamino)-pyrazin-2-yl]-pyridin-2-yl}-amide]",< 8 nM
3,"O=C(Nc1cc(-c2cncc(NCC3CCOCC3)n2)c(Cl)cn1)C1CNCCO1 (centres unmarked) [Example 21, Morpholine-2-carboxylic acid (5-chloro-4-{6-[(tetrahydro-pyran-4-ylmethyl)-amino]-pyrazin-2-yl}-pyridin-2-yl)-amide]",12.8 nM
4,"O=C(Nc1cc(-c2cncc(NCC3CCOCC3)n2)c(Cl)cn1)C1CCNCC1 [Example 22, Piperidine-4-carboxylic acid (5-chloro-4-{6-[(tetrahydro-pyran-4-ylmethyl)-amino]-pyrazin-2-yl}-pyridin-2-yl)-amide]",8 nM
5,"O=C(Nc1cc(-c2cncc(NCC3CCOCC3)n2)c(Cl)cn1)C1CCCOC1 (centres unmarked) [Example 23, Tetrahydro-pyran-3-carboxylic acid (5-chloro-4-{6-[(tetrahydro-pyran-4-ylmethyl)-amino]-pyrazin-2-yl}-pyridin-2-yl)-amide]",9 nM
6,"Cc1ncc(NCC2CCOCC2)nc1-c1cc(NC(=O)[C@@H]2CCCNC2)ncc1Cl [Example 24, (R)-Piperidine-3-carboxylic acid (5-chloro-4-{3-methyl-6-[(tetrahydro-pyran-4-ylmethyl)-amino]-pyrazin-2-yl}-pyridin-2-yl)-amide]",< 8 nM
7,"O=C(Nc1cc(-c2cncc(NCc3cccnc3)n2)c(Cl)cn1)[C@@H]1CCCNC1 [Example 25, (R)-Piperidine-3-carboxylic acid (5-chloro-4-{6-[(pyridin-3-ylmethyl)-amino]-pyrazin-2-yl}-pyridin-2-yl)-amide]",12 nM
8,"O=C(Nc1cc(-c2cncc(NCC3CCCOC3)n2)c(Cl)cn1)[C@@H]1CCCNC1 (stereo partly drawn) [Example 26, (R)-Piperidine-3-carboxylic acid (5-chloro-4-{6-[(tetrahydro-pyran-3-ylmethyl)-amino]-pyrazin-2-yl}-pyridin-2-yl)-amide]",< 8 nM
9,"O=C(Nc1cc(-c2cncc(NC3CCOCC3)n2)c(Cl)cn1)[C@@H]1CCCNC1 [Example 27, (R)-Piperidine-3-carboxylic acid {5-chloro-4-[6-(tetrahydro-pyran-4-ylamino)-pyrazin-2-yl]-pyridin-2-yl}-amide]",48 nM
10,"C[C@@H](O)CNc1cncc(-c2cc(NC(=O)[C@@H]3CCCNC3)ncc2Cl)n1 [Example 28, (R)-Piperidine-3-carboxylic acid {5-chloro-4-[6-((R)-2-hydroxy-propylamino)-pyrazin-2-yl]-pyridin-2-yl}-amide]",15 nM
11,"C[C@H](O)CNc1cncc(-c2cc(NC(=O)[C@@H]3CCCNC3)ncc2Cl)n1 [Example 29, (R)-Piperidine-3-carboxylic acid {5-chloro-4-[6-((S)-2-hydroxy-propylamino)-pyrazin-2-yl]-pyridin-2-yl}-amide]",37 nM
12,"CN(CC1CCOCC1)c1cncc(-c2cc(NC(=O)[C@@H]3CCCNC3)ncc2Cl)n1 [Example 30, (R)-Piperidine-3-carboxylic acid (5-chloro-4-{6-[methyl-(tetrahydro-pyran-4-ylmethyl)-amino]-pyrazin-2-yl}-pyridin-2-yl)-amide]",12 nM
13,"O=C(Nc1cc(-c2cncc(NC[C@H]3CCCO3)n2)c(Cl)cn1)[C@@H]1CCCNC1 [Example 31, (R)-Piperidine-3-carboxylic acid [5-chloro-4-(6-{[(R)-1-(tetrahydro-furan-2-yl)methyl]-amino}-pyrazin-2-yl)-pyridin-2-yl]-amide]",19 nM
14,"O=C(Nc1cc(-c2cncc(NCCN3CCCC3=O)n2)c(Cl)cn1)[C@@H]1CCCNC1 [Example 32, (R)-Piperidine-3-carboxylic acid (5-chloro-4-{6-[2-(2-oxo-pyrrolidin-1-yl)-ethylamino]-pyrazin-2-yl}-pyridin-2-yl)-amide]",20 nM
15,"O=C(Nc1cc(-c2cncc(NC[C@@H]3CCCO3)n2)c(Cl)cn1)[C@@H]1CCCNC1 [Example 33, (R)-Piperidine-3-carboxylic acid [5-chloro-4-(6-{[(S)-1-(tetrahydro-furan-2-yl)methyl]-amino}-pyrazin-2-yl)-pyridin-2-yl]-amide]",15 nM
16,"O=C(Nc1cc(-c2cncc(NCC3CCCCO3)n2)c(Cl)cn1)[C@@H]1CCCNC1 (stereo partly drawn) [Example 34, (R)-Piperidine-3-carboxylic acid (5-chloro-4-{6-[(tetrahydro-pyran-2-ylmethyl)-amino]-pyrazin-2-yl}-pyridin-2-yl)-amide]",11 nM
17,"COCCNc1cncc(-c2cc(NC(=O)[C@@H]3CCCNC3)ncc2Cl)n1 [Example 35, (R)-Piperidine-3-carboxylic acid {5-chloro-4-[6-(2-methoxy-ethylamino)-pyrazin-2-yl]-pyridin-2-yl}-amide]",47 nM
